Measurements published in ChEMBL document CHEMBL3352029, “Ring fusion strategy for the synthesis of anthra[2,3-d]oxazole-2-thione-5,10-dione homologues as DNA topoisomerase inhibitors and as antitumor agents” (Eur J Med Chem, 2014).

Assay: Cytotoxicity against human PC3 cells assessed as inhibition of cell growth after 48 hrs by sulforhodamine B assay
Format: functional, cell-based
Settings: PC-3, 48 h

Row | SMILES | IC50 [µM]
1 | CCCSc1nc2cc3c(cc2o1)C(=O)c1ccccc1C3=O | > 30
2 | O=C1c2ccccc2C(=O)c2cc3oc(SCc4ccccc4F)nc3cc21 | > 30
3 | O=C(CCCl)Nc1cc2c(cc1O)C(=O)c1ccccc1C2=O | 26.7
4 | O=C(CN1CCCC1)Nc1cc2c(cc1O)C(=O)c1ccccc1C2=O | 26
5 | CSc1nc2cc3c(cc2o1)C(=O)c1ccccc1C3=O | > 30
6 | O=C1c2ccccc2C(=O)c2cc3oc(SCCN4CCOCC4)nc3cc21 | > 30
7 | O=C1COc2cc3c(cc2N1)C(=O)c1ccccc1C3=O | > 30
8 | O=C1c2ccccc2C(=O)c2cc3oc(SCCN4CCCCC4)nc3cc21 | 21.8
9 | O=C1c2ccccc2C(=O)c2cc3oc(SCCc4ccccc4)nc3cc21 | > 30
10 | O=C1c2ccccc2C(=O)c2cc3oc(SCc4ccccc4[N+](=O)[O-])nc3cc21 | > 30
11 | CCN(CC)CC(=O)Nc1cc2c(cc1O)C(=O)c1ccccc1C2=O | 20.2
12 | O=C1c2ccccc2C(=O)c2cc3oc(SCc4cccc([N+](=O)[O-])c4)nc3cc21 | > 30
13 | CCN(CC)CCC(=O)Nc1cc2c(cc1O)C(=O)c1ccccc1C2=O | 23.6
